According to ChEMBL document CHEMBL3217407, “Adamantane substituted aminocyclitols as pharmacological chaperones for Gaucher disease” (Medchemcomm, 2013):
pIC50, pKi: −log10 of the molar value. Activity calls are given as the source filed them. The calls are words filed in the database; no cut-off is given here.

How the values were obtained:
[1] = molecular target: T1, Lysosomal acid glucosylceramidase (Homo sapiens) (UniProt P04062); details: 50 uM
T1 sequence (whole entry): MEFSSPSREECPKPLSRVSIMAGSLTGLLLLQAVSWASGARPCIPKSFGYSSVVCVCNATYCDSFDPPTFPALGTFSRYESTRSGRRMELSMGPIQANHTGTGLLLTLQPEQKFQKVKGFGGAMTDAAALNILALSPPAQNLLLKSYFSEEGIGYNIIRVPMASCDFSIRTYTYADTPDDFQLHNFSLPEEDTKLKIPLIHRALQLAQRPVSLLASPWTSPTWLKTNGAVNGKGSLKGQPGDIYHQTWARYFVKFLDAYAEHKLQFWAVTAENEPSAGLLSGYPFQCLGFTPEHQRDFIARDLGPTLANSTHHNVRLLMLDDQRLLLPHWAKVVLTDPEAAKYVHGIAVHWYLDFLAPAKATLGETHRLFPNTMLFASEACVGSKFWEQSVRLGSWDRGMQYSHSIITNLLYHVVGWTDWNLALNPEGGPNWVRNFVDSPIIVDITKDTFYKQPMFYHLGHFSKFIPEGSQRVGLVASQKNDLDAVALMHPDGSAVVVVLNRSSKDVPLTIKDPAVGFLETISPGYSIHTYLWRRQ
Description: Inhibition of imiglucerase in human fibroblasts using 4-methylumbelliferyl-beta-D-glucopyranoside as substrate at 50 uM after 24 hrs

[2] = molecular target: T2, Beta-galactosidase (Bos taurus) (UniProt Q58D55); assay: Inhibition of bovine liver beta-galactosidase at 200 uM
T2 sequence (whole entry): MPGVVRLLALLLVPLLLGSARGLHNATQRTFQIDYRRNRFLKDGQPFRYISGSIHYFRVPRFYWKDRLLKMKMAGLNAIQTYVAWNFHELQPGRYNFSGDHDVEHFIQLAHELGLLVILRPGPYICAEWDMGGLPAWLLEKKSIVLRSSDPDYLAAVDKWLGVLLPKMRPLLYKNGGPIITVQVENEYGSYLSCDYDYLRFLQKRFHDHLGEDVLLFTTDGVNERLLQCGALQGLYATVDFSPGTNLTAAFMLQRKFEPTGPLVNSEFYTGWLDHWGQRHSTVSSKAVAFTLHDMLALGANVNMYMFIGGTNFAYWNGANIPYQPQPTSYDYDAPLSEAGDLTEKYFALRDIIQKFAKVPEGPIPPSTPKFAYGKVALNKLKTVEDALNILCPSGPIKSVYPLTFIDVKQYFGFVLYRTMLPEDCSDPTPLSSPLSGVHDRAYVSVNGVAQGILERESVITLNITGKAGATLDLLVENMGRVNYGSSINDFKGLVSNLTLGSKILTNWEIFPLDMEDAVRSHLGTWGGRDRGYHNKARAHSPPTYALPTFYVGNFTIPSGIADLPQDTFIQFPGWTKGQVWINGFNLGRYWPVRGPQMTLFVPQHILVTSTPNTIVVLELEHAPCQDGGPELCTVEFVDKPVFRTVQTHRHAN

[3] = molecular target: T3, Lysosomal acid glucosylceramidase (Homo sapiens, UniProt P04062); assay: Competitive inhibition of human recombinant imiglucerase using 4-methylumbelliferyl-beta-D-glucopyranoside as substrate preincubated for 30 mins at pH 5.2 before substrate addition measured after 10 mins by Lineweaver-Burk or Dixon plot analysis
T3 sequence (P04062 whole entry): T1 sequence (whole entry)

[4] = molecular target: T3, Lysosomal acid glucosylceramidase; assay: Inhibition of human recombinant imiglucerase using 4-methylumbelliferyl-beta-D-glucopyranoside as substrate preincubated for 30 mins at pH 7 before substrate addition measured after 10 mins
[5] = molecular target: T3, Lysosomal acid glucosylceramidase; assay: Competitive inhibition of human recombinant imiglucerase using 4-methylumbelliferyl-beta-D-glucopyranoside as substrate preincubated for 30 mins at pH 7 before substrate addition measured after 10 mins by Lineweaver-Burk or Dixon plot analysis
[6] = Cytotoxicity against human fibroblasts up to 300 uM after 24 hrs by MTT assay; type: cell-based; details: fibroblast
[7] = molecular target: T3, Lysosomal acid glucosylceramidase; assay: Inhibition of human recombinant imiglucerase using 4-methylumbelliferyl-beta-D-glucopyranoside as substrate preincubated for 30 mins at pH 5.2 before substrate addition measured after 10 mins
[8] = molecular target: T1, Lysosomal acid glucosylceramidase (Homo sapiens); assay: Ratio of IC50 for human recombinant imiglucerase at pH 5.2 to IC50 for human recombinant imiglucerase at pH 7
Saccharomyces cerevisiae = assay: Inhibition of yeast alpha-glucosidase at 200 uM
[9] = molecular target: T1, Lysosomal acid glucosylceramidase (Homo sapiens); assay: Inhibition of imiglucerase in human fibroblasts using 4-methylumbelliferyl-beta-D-glucopyranoside as substrate at 200 uM after 24 hrs
[10] = molecular target: Alpha-galactosidase (Coffea arabica) (UniProt Q42656); assay: Inhibition of coffee beans alpha-galactosidase at 200 uM
Sequence of Alpha-galactosidase (Coffea arabica) (Q42656 16-378 limits assumed): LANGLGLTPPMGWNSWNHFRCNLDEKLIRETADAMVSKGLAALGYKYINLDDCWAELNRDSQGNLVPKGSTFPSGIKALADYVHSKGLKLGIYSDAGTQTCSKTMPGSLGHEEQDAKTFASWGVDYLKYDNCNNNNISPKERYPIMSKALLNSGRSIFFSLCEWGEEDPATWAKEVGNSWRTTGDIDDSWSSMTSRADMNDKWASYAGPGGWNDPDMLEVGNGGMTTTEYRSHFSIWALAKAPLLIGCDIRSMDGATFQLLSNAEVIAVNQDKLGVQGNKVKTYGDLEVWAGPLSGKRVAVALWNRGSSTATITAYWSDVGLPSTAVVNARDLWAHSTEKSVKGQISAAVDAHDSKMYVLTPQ

inhibition [2]	pKi [3]	pIC50 [4]	pKi [5]	pIC50 [7]	Ratio IC50 [8]	inhibition (Saccharomyces cerevisiae)	inhibition [9] [%]	inhibition [10]	Compound	inhibition [1] [%]	Activity [6]
									CCCCCCCCCN[C@@H]1[C@H](O)[C@H](O)[C@@H](O)[C@H](O)[C@H]1O	95	
									CCCCCCCCCN[C@H]1[C@H](O)[C@@H](O)[C@H](O)[C@@H](O)[C@@H]1O	29	
inactive	3.74	4.24	4.35	3.59	4	inactive	0	inactive	O=C(CCCN[C@H]1[C@H](O)[C@@H](O)[C@H](O)[C@@H](O)[C@@H]1O)NC12CC3CC(CC(C3)C1)C2		Non-toxic
24%	5.54	6.43	6.60	5.27	12	inactive	1	inactive	O=C(CCCN[C@@H]1[C@H](O)[C@H](O)[C@@H](O)[C@H](O)[C@H]1O)NC12CC3CC(CC(C3)C1)C2		Non-toxic
